Test results from patent US12385839B2, “Use of protein in predicting drug properties” (priority 2021, dated 2025).
Where two headings read alike, the source gives them in different places.

How the values were obtained:
[1] = biological target: T1, human serum albumin (HSA) (Homo sapiens, UniProt P02768); experiment: Fluorescence emission spectrum (quenching) of HSA with carbamate pesticides; format: binding; conditions: for R (binding distance): Förster energy transfer; for fluorescence of HSA quenched by pesticide: titration of pesticide; for ΔH^0 / ΔS^0: Van't Hoff, 296-310 K
T1 sequence (P02768 25-609): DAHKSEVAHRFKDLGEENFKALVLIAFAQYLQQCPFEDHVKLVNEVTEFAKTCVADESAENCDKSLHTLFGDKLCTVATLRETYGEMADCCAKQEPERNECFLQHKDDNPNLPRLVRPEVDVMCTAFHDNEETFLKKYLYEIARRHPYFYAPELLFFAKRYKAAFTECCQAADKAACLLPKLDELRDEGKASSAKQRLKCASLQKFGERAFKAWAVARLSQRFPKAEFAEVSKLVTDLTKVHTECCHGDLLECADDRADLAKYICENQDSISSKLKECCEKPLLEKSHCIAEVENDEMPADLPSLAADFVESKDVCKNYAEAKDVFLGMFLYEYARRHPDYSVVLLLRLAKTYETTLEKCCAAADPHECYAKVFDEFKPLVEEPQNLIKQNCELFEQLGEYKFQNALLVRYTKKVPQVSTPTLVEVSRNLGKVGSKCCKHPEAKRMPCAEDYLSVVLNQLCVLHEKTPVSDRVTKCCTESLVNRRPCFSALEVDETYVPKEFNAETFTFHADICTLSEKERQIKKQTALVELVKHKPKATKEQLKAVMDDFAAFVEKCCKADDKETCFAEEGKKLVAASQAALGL
Protocol: the mixed solution to be tested was preheated at […] for 3 minutes, and the emission spectrum of HSA with carbamate pesticides was measured at 300-500 nm . The excitation wavelength was set at 280 nm , and the slit width for both excitation and emission was 15 nm; the HSA concentration was kept constant at 5×10^−7 M, and the pesticide concentration was (0-105)×10^−7 M.
The internal filtering effect of fluorescence signal was corrected according to the following formula: Fcor=Fobsexp[(Aex+Aem)/2] (1);
in this formula, Fcor and Fobs represent corrected fluorescence signal and observed fluorescence signal, respectively, and Aex and Aem represent absorbance of the mixed solution to be tested at excitation wavelength and emission wavelengths, respectively; the quenching constant, number of binding sites, binding constant, free energy and binding distance of different drugs were obtained by fluorescence emission spectra, and a BP neural network model was obtained. Specifically, they were obtained as follows:
There is a linear relationship between F0/F and [Q] to distinguish whether it is static quenching or dynamic quenching. The fluorescence quenching data are analyzed by Stern-Volmer equation to clarify the quenching mechanism: F0/F=1+KSV[Q]=1+Kqτ0[Q] (2);
in the formula, F0 and F are fluorescence signals […] quencher, respectively. Ksv is Stern-Volmer quenching constant; Kq is a quenching rate constant of biomolecules; τ0 is the average lifetime of biomolecules without quencher (about 10^−8 s); [Q] is the concentration of quencher.
The maximum dynamic quenching rate constant of all kinds of quenchers on polymers was 2.0×10^10 L·mol^−1·s^−1. Static quenching and dynamic quenching could be judged according to this value. If K^q was greater than 2.0×10^10 L·mol^−1·s^−1, it belonged to static quenching. Otherwise, it belonged to dynamic quenching.
In this part, the binding sites and binding constants between carbamate pesticides and HSA were calculated. The following formula was used to calculate the number of binding sites (n) and the binding constant (Ka) of carbamate pesticides and HSA: log[(F0−F)/F]=log Ka+nlog[Q] (3);
The interactions between biological molecules and drug molecules were weak intermolecular interactions, including hydrogen bonds, van der Waals forces, electrostatic forces and hydrophobic interactions. By using Van't Hoff equation, the thermodynamic constants of drug-protein interaction were obtained, and the main types of drug-protein interaction were judged according to the changes of binding constants under different conditions. LnK=−ΔH^0/RT+ΔS^0/R (4); ΔG^0=ΔH^0−TΔS^0 (5);
There is a relationship among energy transfer efficiency E, distance r between energy donor and energy receptor and energy transfer distance R0. E=1−F/F0=R0^6/(R0^6+r^6) (6);
E represents the transfer efficiency between donor and receptor, r is the average distance between donor and receptor, and R0 is the critical distance when the transfer efficiency is 50%. R0^6=8.79×10^−K^2N^−4φJ (7)
K^2 is the orientation related to the geometry of donor and receptor of dipole. For random orientation in fluid, K^2=2/3; N is the average refractive index of the medium in the wavelength range with obvious spectral overlap, and the refractive index of water and organic matter is 1.336; φ is the quantum yield of donor, and the quantum yield of tryptophan in HSA is about 0.118; J represents the influence of spectral overlap between the emission spectrum of the donor and the absorption spectrum of the receptor, and can be calculated by the following formula: j=ΣF(λ)ϵ(λ)λ^4Δλ/ΣF(λ) Δλ (8);
F(λ) is the corrected fluorescence signal of the donor in the wavelength range from λ to (λ+Δλ), while ϵ(λ) is the extinction coefficient of the receptor at λ.

[2] = biological target: T1, human serum albumin (HSA); experiment: Circular dichroism spectrum, secondary structure (α-helix content) of HSA; conditions: HSA 2×10^−6 M
Protocol: the mixed solution to be tested was preheated at […] for 2-5 minutes, and the CD spectrum of HSA was recorded in the wavelength range of 200-500 nm . The concentration of HSA was kept at 2×10^−6 M, and the pesticide was (0-20)×10^−6 m. Firstly, HSA was measured, and then the ratio of HSA to pesticides needed to be determined specifically, which was preliminarily determined according to the ratio of 1:1, 1:2 and 1:3.
According to the following equation, the result of CD spectrum was usually expressed as the mean residue ellipticity (MRE), and the unit was deg·cm^2·dmol^−1. MRE=ObservedCD(mdeg)/(10Cpnl) (9);
in which Cp is the molar concentration of protein, n is the number (585) of amino acid residues, and 1 is the path length (1 mm). The α helicity of free and bound HSA is calculated from MRE values using the following formula: α−Helix(%)=[(−MRE208−4000)×100]/(33000-4000) (10)
in which the MRE208 is the MRE value observed at 208 nm , 4000 is the MRE value of random coil conformation at 208 nm , and […] is the MRE value of pure α helix at 208 nm .

[3] = cited from earlier work; for LD50: modelling table; for Toxicity: toxicity grade by LD50, trailing figure = number of pesticides in group
[4] = 37°, modelling table, read-out: Ka (37°) (converted)
[5] = 296 K, test-set pesticides (Table 4)
[6] = 303 K, test-set pesticides (Table 4)
[7] = 310 K, test-set pesticides (Table 4)

Row | Compound | Ksv (37°) ([1]; 37°, modelling table) | ΔG(37°) ([1]; 37°, modelling table) | ΔG^0 ([1]; 296 K) | Kq ([1]; 296 K, pH 7.4) | Ksv ([1]; 296 K, pH 7.4) | n (number of binding sites) ([1]; 296 K, pH 7.4) | ΔG^0 ([1]; 303 K) | Kq ([1]; 303 K, pH 7.4) | Ksv ([1]; 303 K, pH 7.4) | n (number of binding sites) ([1]; 303 K, pH 7.4) | ΔG^0 ([1]; 310 K) | R (binding distance) ([1]; 310 K) | Kq ([1]; 310 K, pH 7.4) | Ksv ([1]; 310 K, pH 7.4) | n (number of binding sites) ([1]; 310 K, pH 7.4) | ΔH^0 [1] | Binding distance/r ([1]; modelling table) | Number of binding sites/n ([1]; modelling table) | LD50 [3] | Toxicity [3] | other results
1 | CNC(=O)Oc1cccc2c1OC(C)(C)C2 [Carbofuran, carbofuran] | 87696.31575 | −25.15 | -21.112 kJ/mol | 5.563 ± 0.123 10^12 M^−1s^−1 | 5.563 ± 0.123 10^4 M^−1 | 0.797 ± 0.002 | -23.132 kJ/mol | 7.239 ± 0.082 10^12 M^−1s^−1 | 7.239 ± 0.082 10^4 M^−1 | 0.822 ± 0.002 | -25.153 kJ/mol | 1.938 nm | 8.770 ± 0.088 10^12 M^−1s^−1 | 8.770 ± 0.088 10^4 M^−1 | 0.862 ± 0.002 | 64.326 kJ/mol | 1.938 | 0.8616 | 5 mg/kg | Highly | fluorescence of HSA quenched by pesticide ([1]; 310 K): quenched; Kd ([1]; Ka (binding constant), 296 K, pH 7.4): 185 µM; Kd ([1]; Ka (binding constant), 303 K, pH 7.4): 107 µM; Kd ([1]; Ka (binding constant), 310 K, pH 7.4): 56.7 µM; ΔS^0 [1]: 288.639 J · mol^−1 · K^−1; α-helix contents ([2]; 5:1 (Pesticide:HSA)): 51.483%; α-helix contents ([2]; 10:1 (Pesticide:HSA)): 48.304%
2 | CNC(=O)O/N=C/C(C)(C)SC [Aldicarb, aldicarb] | 72295.50723 | −24.42 |  |  |  |  |  |  |  |  |  |  |  |  |  |  | 2.623 | 0.8508 | 0.5 mg/kg | Highly | Kd [1, 4]: 77.3 µM; n ([1]; 296 K (Table 4)): 0.823 ± 0.002; ΔG^0 ([1]; 296 K (Table 4)): -22.263 kJ/mol; Kd ([1]; 296 K (Table 4), read-out: Ka): 119 µM; Ksv [1, 5]: 6.498 ± 0.153 10^4 M−1; n ([1]; 303 K (Table 4)): 0.837 ± 0.002; ΔG^0 ([1]; 303 K (Table 4)): -23.341 kJ/mol; Kd ([1]; 303 K (Table 4), read-out: Ka): 93.5 µM; Ksv [1, 6]: 6.999 ± 0.079 10^4 M−1; n ([1]; 310 K (Table 4)): 0.851 ± 0.002; r ([1]; 310 K (Table 4)): 2.623; ΔG^0 ([1]; 310 K (Table 4)): -24.419 kJ/mol; Ksv [1, 7]: 7.230 ± 0.167 10^4 M−1; Actual LD50 ([3]; Table 5): 0.5 mg/kg; Actual LD50 ([3]; Table 6): 0.5 mg/kg
3 | CNC(=O)Oc1ccc(N(C)C)c(C)c1 [Aminocarb, aminocarb] | 39050.24214 | −18.36 | -15.553 kJ/mol | 3.151 ± 0.089 10^12 M^−1s^−1 | 3.151 ± 0.089 10^4 M^−1 | 0.649 ± 0.005 | -16.958 kJ/mol | 3.409 ± 0.059 10^12 M^−1s^−1 | 3.409 ± 0.059 10^4 M^−1 | 0.669 ± 0.006 | -18.364 kJ/mol | 2.215 nm | 3.905 ± 0.179 10^12 M^−1s^−1 | 3.905 ± 0.179 10^4 M^−1 | 0.699 ± 0.003 | 43.878 kJ/mol | 2.215 | 0.6985 | 30 mg/kg | Highly | Kd [1, 4]: 786 µM; Kd ([1]; 296 K, pH 7.4, read-out: Ka (binding constant)): 1760 µM; Kd ([1]; 303 K, pH 7.4, read-out: Ka (binding constant)): 1250 µM; Kd ([1]; 310 K, pH 7.4, read-out: Ka (binding constant)): 786 µM; fluorescence of HSA quenched by pesticide ([1]; 310 K): quenched; ΔS^0 [1]: 200.780 J · mol^−1 · K^−1; α-helix contents ([2]; 5:1 (Pesticide:HSA)): 49.862%; α-helix contents ([2]; 10:1 (Pesticide:HSA)): 49.082%
4 | CNC(=O)O/N=C(\C[S+](C)[O-])C(C)(C)C (stereo not shown) [Thiofanox-sulfoxide] |  |  | -17.333 kJ/mol | 3.284 ± 0.040 10^12 M^−1s^−1 | 3.284 ± 0.040 10^4 M^−1 | 0.707 ± 0.009 | -18.944 kJ/mol | 4.237 ± 0.067 10^12 M^−1s^−1 | 4.237 ± 0.067 10^4 M^−1 | 0.726 ± 0.005 | -20.556 kJ/mol | 1.702 nm | 5.339 ± 0.093 10^12 M^−1s^−1 | 5.339 ± 0.093 10^4 M^−1 | 0.746 ± 0.006 | 50.812 kJ/mol |  |  |  |  | Ka (binding constant) ([1]; 296 K, pH 7.4): (1.127 ± 0.100) × 10^3 M^−1; Ka (binding constant) ([1]; 303 K, pH 7.4): (1.906 ± 0.103) × 10^3 M^−1; Ka (binding constant) ([1]; 310 K, pH 7.4): (2.861 ± 0.176) × 10^3 M^−1; ΔS^0 [1]: 230.219 J · mol^−1 · K^−1; α-helix contents ([2]; 5:1 (Pesticide:HSA)): 50.523%; α-helix contents ([2]; 10:1 (Pesticide:HSA)): 48.338%
5 | CNC(=O)O/N=C/C(C)(C)S(C)(=O)=O [Aldicarb-sulfone, aldicarb sulfone] | 39842.68547 | −17.29 |  |  |  |  |  |  |  |  |  |  |  |  |  |  |  | 0.6544 |  |  | n ([1]; 296 K (Table 4)): 0.582 ± 0.008; ΔG^0 ([1]; 296 K (Table 4)): -13.649 kJ/mol; Ksv [1, 5]: 2.797 ± 0.157 10^4 M−1; n ([1]; 303 K (Table 4)): 0.624 ± 0.003; ΔG^0 ([1]; 303 K (Table 4)): -15.471 kJ/mol; Ksv [1, 6]: 3.379 ± 0.129 10^4 M−1; n ([1]; 310 K (Table 4)): 0.654 ± 0.010; r ([1]; 310 K (Table 4)): 2.376; ΔG^0 ([1]; 310 K (Table 4)): -17.294 kJ/mol; Ksv [1, 7]: 3.984 ± 0.197 10^4 M−1; Kd ([1]; Ka (37°), 37°, modelling table): 1210 µM; Kd ([1]; Ka, 296 K (Table 4)): 3860 µM; Kd ([1]; Ka, 303 K (Table 4)): 2200 µM
6 | CCC(C)c1ccccc1OC(=O)NC (stereo not shown) [Fenobucarb, fenobucarb] | 50302.85806 | −15.31 |  |  |  |  |  |  |  |  |  |  |  |  |  |  | 2.791 | 0.5672 | 350 mg/kg | Moderately | n ([1]; 296 K (Table 4)): 0.535 ± 0.006; ΔG^0 ([1]; 296 K (Table 4)): -12.911 kJ/mol; Ksv [1, 5]: 3.803 ± 0.107 10^4 M−1; n ([1]; 303 K (Table 4)): 0.559 ± 0.004; ΔG^0 ([1]; 303 K (Table 4)): -14.111 kJ/mol; Ksv [1, 6]: 4.110 ± 0.183 10^4 M−1; n ([1]; 310 K (Table 4)): 0.567 ± 0.008; r ([1]; 310 K (Table 4)): 2.791; ΔG^0 ([1]; 310 K (Table 4)): -15.312 kJ/mol; Ksv [1, 7]: 5.030 ± 0.145 10^4 M−1; Kd ([1]; Ka (37°), 37°, modelling table): 2640 µM; Kd ([1]; Ka, 296 K (Table 4)): 5280 µM; Kd ([1]; Ka, 303 K (Table 4)): 3670 µM; Actual LD50 ([3]; Table 5): 350 mg/kg; Actual LD50 ([3]; Table 6): 350 mg/kg
